Converted amounts (≈) assume the structure as drawn. Values belong to the compound of their own block, whether it stands above or below them.
Columns and labels:
Format in all cases: cell-based
S. aureus A798 = assay: MIC by broth microdilution (NCCLS), S. aureus A798; settings: cation-adjusted Mueller-Hinton Broth, pH 7.2-7.3; for MIC: Staphylococcus aureus, A798, second table
Experimental: (§1) These assays have been performed following the description given in “Methods for dilution Antimicrobial Susceptibility Tests for Bacteria that Grow Aerobically, 4th ed.; Approved standard: NCCLS Document M7-A4; National Committee for Clinical Laboratory Standards Villanova, Pa., USA, 1997”. Minimal inhibitory concentrations (MICs; mg/l) were determined in cation-adjusted Mueller-Hinton Broth (BBL) by a microdilution method following NCCLS guidelines (National Committee for Clinical Laboratory Standards. Methods for Dilution Antimicrobial Susceptibility). The pH of the test medium was 7.2-7.3. All Example compounds were tested against several Gram positive and Gram negative bacteria.

M. catarrhalis A894 = assay: MIC by broth microdilution (NCCLS), M. catarrhalis A894; settings: cation-adjusted Mueller-Hinton Broth, pH 7.2-7.3
Experimental: as §1

S. pneumoniae 49619 = assay: MIC by broth microdilution (NCCLS), S. pneumoniae 49619; settings: cation-adjusted Mueller-Hinton Broth, pH 7.2-7.3
Experimental: as §1

Compound: COc1ccc2nccc(/C=C/C3CCC4(CC3)CN(c3ccc5c(c3)NC(=O)CS5)C(=O)O4)c2c1 (mixture of isomers) [Example 18, cis/trans-6-{8-[(E)-2-(6-methoxy-quinolin-4-yl)-vinyl]-2-oxo-1-oxa-3-aza-spiro[4.5]dec-3-yl}-4H-benzo[1,4]thiazin-3-one]
MIC M. catarrhalis A894 (M. catarrhalis A894): ≦0.031 mg/l
MIC S. aureus A798 (S. aureus A798): ≦0.031 mg/l
MIC S. aureus A798 (S. aureus A798; second table): ≦0.031 mg/l
MIC S. pneumoniae 49619 (S. pneumoniae 49619): 0.125 µg/mL

Compound: COc1ccc2nccc(NC(=O)C3CCC4(CC3)CN(c3ccc5c(c3)OCCO5)C(=O)O4)c2n1 (mixture of isomers) [Example 9, cis/trans-3-(2,3-dihydro-benzo[1,4]dioxin-6-yl)-2-oxo-1-oxa-3-aza-spiro[4.5]decane-8-carboxylic acid (6-methoxy-[1,5]naphthyridin-4-yl)-amide]
MIC S. aureus A798 (S. aureus A798; second table): ≦0.031 mg/l

Compound: COc1ccc2nccc(OCC3CCC4(CC3)CN(c3ccc5c(c3)OCCO5)C(=O)O4)c2c1 (stereo not drawn) [Example 2, cis-3-(2,3-dihydro-benzo[1,4]dioxin-6-yl)-8-(6-methoxy-quinolin-4-yloxymethyl)-1-oxa-3-aza-spiro[4.5]decan-2-one]
MIC S. aureus A798 (S. aureus A798; second table): 0.25 µg/mL (≈ 0.525 µM)

Compound: COc1ccc2nccc(OCC3CCC4(CC3)CN(c3ccc5c(c3)OCCO5)C(=O)O4)c2n1 (stereo not drawn) [Example 3, cis-3-(2,3-dihydro-benzo[1,4]dioxin-6-yl)-8-(6-methoxy-[1,5]naphthyridin-4-yloxymethyl)-1-oxa-3-aza-spiro[4.5]decan-2-one]
MIC S. aureus A798 (S. aureus A798; second table): 2 µg/mL (≈ 4.19 µM)

Compound: C=CC[C@@H]1CN(C[C@H](O)c2ccnc3ccc(OC)cc23)CC[C@]12CN(c1ccc3c(c1)OCCO3)C(=O)O2 (racemic) [Example 6, (5RS, 6RS)-6-allyl-3-(2,3-dihydro-benzo[1,4]dioxin-6-yl)-8-[(2RS)-2-hydroxy-2-(6-methoxy-quinolin-4-yl)-ethyl]-1-oxa-3,8-diaza-spiro[4.5]decan-2-one]
MIC (S. aureus A798): 1 µg/mL (≈ 1.88 µM)

Compound: COc1ccc2nccc(C(O)CN3CCC4(CC3)CN(c3ccc5c(c3)NC(=O)CS5)C(=O)O4)c2c1 (racemic) [Example 5, 6-{8-[(2RS)-2-hydroxy-2-(6-methoxy-quinolin-4-yl)-ethyl]-2-oxo-1-oxa-3,8-diaza-spiro[4.5]dec-3-yl}-4H-benzo[1,4]thiazin-3-one]
MIC (S. aureus A798): ≤ 0.031 µg/mL

Compound: COc1ccc2ncnc(OC[C@H]3CC[C@@]4(CC3)CN(c3ccc5c(c3)OCCO5)C(=O)O4)c2c1 [Example 19, cis-3-(2,3-dihydro-benzo[1,4]dioxin-6-yl)-8-(6-methoxy-quinazolin-4-yloxymethyl)-1-oxa-3-aza-spiro[4.5]decan-2-one]
MIC M. catarrhalis A894 (M. catarrhalis A894): 0.5 µg/mL (≈ 1.05 µM)
MIC S. aureus A798 (S. aureus A798): 0.125 µg/mL (≈ 0.262 µM)
MIC S. aureus A798 (S. aureus A798; second table): 0.125 µg/mL (≈ 0.262 µM)
MIC S. pneumoniae 49619 (S. pneumoniae 49619): 0.25 µg/mL (≈ 0.524 µM)

Compound: COc1ccc2nccc(/C=C/C3CCC4(CC3)CN(c3ccc5c(c3)OCCO5)C(=O)O4)c2c1 (mixture of isomers) [Example 17, cis/trans-3-(2,3-dihydro-benzo[1,4]dioxin-6-yl)-8-[(E)-2-(6-methoxy-quinolin-4-yl)-vinyl]-1-oxa-3-aza-spiro[4.5]decan-2-one]
MIC S. aureus A798 (S. aureus A798; second table): 2 µg/mL

Compound: (5R,6R,8S)-3-(2,3-dihydro-benzo[1,4]dioxin-6-yl)-8-[(2R)-2-hydroxy-2-(6-methoxy-[1,5]naphthyridin-4-yl)-ethyl]-6-hydroxymethyl-1,7-dioxa-3-aza-spiro[4.5]decan-2-one and (5R,6R,8S)-3-(2,3-dihydro-benzo[1,4]dioxin-6-yl)-8-[(2S)-2-hydroxy-2-(6-methoxy-[1,5]naphthyridin-4-yl)-ethyl]-6-hydroxymethyl-1,7-dioxa-3-aza-spiro[4.5]decan-2-one [Example 1]
MIC S. aureus A798 (S. aureus A798; second table): 0.5 µg/mL

Compound: COc1ccc2nccc(C(O)CN3CCC4(CC3)CN(c3ccc5c(c3)OCCO5)C(=O)O4)c2c1 (racemic) [Example 4, 3-(2,3-dihydro-benzo[1,4]dioxin-6-yl)-8-[(2RS)-2-hydroxy-2-(6-methoxy-quinolin-4-yl)-ethyl]-1-oxa-3,8-diaza-spiro[4.5]decan-2-one]
MIC (S. aureus A798): ≤ 0.031 µg/mL

Compound: COC(=O)C[C@@H]1CN(C[C@H](O)c2ccnc3ccc(OC)cc23)CC[C@]12CN(c1ccc3c(c1)OCCO3)C(=O)O2 (racemic) [Example 7, (5RS,6RS)-{3-(2,3-dihydro-benzo[1,4]dioxin-6-yl)-8-[(2RS)-2-hydroxy-2-(6-methoxy-quinolin-4-yl)-ethyl]-2-oxo-1-oxa-3,8-diaza-spiro[4.5]dec-6-yl}-acetic acid methyl ester]
MIC (S. aureus A798): 2 µg/mL (≈ 3.55 µM)

Compound: COc1ccc2nccc([C@@H](O)CN3CC[C@]4(CN(c5ccc6c(c5)OCCO6)C(=O)O4)[C@H](CCO)C3)c2c1 (racemic) [Example 8, (5RS, 6RS)-3-(2,3-dihydro-benzo[1,4]dioxin-6-yl)-6-(2-hydroxy-ethyl)-8-[(2RS)-2-hydroxy-2-(6-methoxy-quinolin-4-yl)-ethyl]-1-oxa-3,8-diaza-spiro[4.5]decan-2-one]
MIC (S. aureus A798): 1 µg/mL (≈ 1.87 µM)

Now from value to compound:

MIC S. aureus A798 (S. aureus A798; second table): ≦0.031 mg/l
Compound: COc1ccc2nccc(CCC3(O)CCC4(CC3)CN(c3ccc5c(c3)NC(=O)CO5)C(=O)O4)c2n1 (stereo not drawn) [Example 15, cis or trans-6-{8-hydroxy-8-[2-(6-methoxy-[1,5]naphthyridin-4-yl)-ethyl]-2-oxo-1-oxa-3-aza-spiro[4.5]dec-3-yl}-4H-benzo[1,4]oxazin-3-one]

MIC S. aureus A798 (S. aureus A798; second table): ≦0.031 mg/l
Compound: COc1ccc2nccc(CCC3(O)CCC4(CC3)CN(c3ccc5c(c3)NC(=O)CS5)C(=O)O4)c2n1 (stereo not drawn) [Example 13, cis or trans-6-{8-hydroxy-8-[2-(6-methoxy-[1,5]naphthyridin-4-yl)-ethyl]-2-oxo-1-oxa-3-aza-spiro[4.5]dec-3-yl}-4H-benzo[1,4]thiazin-3-one]

MIC S. aureus A798 (S. aureus A798; second table): 0.125 µg/mL (≈ 0.254 µM)
Compound: COc1ccc2nccc(CCC3(O)CCC4(CC3)CN(c3ccc5c(c3)OCCO5)C(=O)O4)c2n1 (stereo not drawn) [Example 10, cis or trans-3-(2,3-dihydro-benzo[1,4]dioxin-6-yl)-8-hydroxy-8-[2-(6-methoxy-[1,5]naphthyridin-4-yl)-ethyl]-1-oxa-3-aza-spiro[4.5]decan-2-one]

MIC S. aureus A798 (S. aureus A798; second table): 0.25 µg/mL (≈ 0.509 µM)
Compound: COc1ccc2nccc(CCC3(O)CCC4(CC3)CN(c3ccc5c(c3)OCCO5)C(=O)O4)c2n1 (stereo not drawn) [Example 11, cis or trans-3-(2,3-dihydro-benzo[1,4]dioxin-6-yl)-8-hydroxy-8-[2-(6-methoxy-[1,5]naphthyridin-4-yl)-ethyl]-1-oxa-3-aza-spiro[4.5]decan-2-one]

MIC S. aureus A798 (S. aureus A798; second table): ≦0.031 mg/l
Compound: COc1ccc2nccc(CCC3(O)CCC4(CC3)CN(c3ccc5c(c3)NC(=O)CO5)C(=O)O4)c2n1 (stereo not drawn) [Example 14, cis or trans-6-{8-hydroxy-8-[2-(6-methoxy-[1,5]naphthyridin-4-yl)-ethyl]-2-oxo-1-oxa-3-aza-spiro[4.5]dec-3-yl}-4H-benzo[1,4]oxazin-3-one]

MIC S. aureus A798 (S. aureus A798; second table): ≦0.031 mg/l
Compound: COc1ccc2nccc(CCC3CCC4(CC3)CN(c3ccc5c(c3)NC(=O)CO5)C(=O)O4)c2n1 (mixture of isomers) [Example 16, cis/trans-6-{8-[2-(6-methoxy-[1,5]naphthyridin-4-yl)-ethyl]-2-oxo-1-oxa-3-aza-spiro[4.5]dec-3-yl}-4H-benzo[1,4]oxazin-3-one]

MIC S. aureus A798 (S. aureus A798; second table): ≦0.031 mg/l
Compound: COc1ccc2nccc(CCC3(O)CCC4(CC3)CN(c3ccc5c(c3)NC(=O)CS5)C(=O)O4)c2n1 (stereo not drawn) [Example 12, cis or trans-6-{8-hydroxy-8-[2-(6-methoxy-[1,5]naphthyridin-4-yl)-ethyl]-2-oxo-1-oxa-3-aza-spiro[4.5]dec-3-yl}-4H-benzo[1,4]thiazin-3-one]
